Tests used:
[1] = system: SCID mice with TH1-mediated Crohn-like colitis after transfer of CD4+CD45RBhigh T-cells; experiment: Endoscopic index of colitis severity (EICS) after low dose PDT in transfer colitis (Example 2); assay type: in vivo
Source text: Since in example 1 only 55% of the mice developed colitis, Applicants have injected 4×10^5 cells CD4+CD45RB^high intravenously into 9.5 weeks old SCID mice in the following second set of SCID mice.
Evolution of colitis in SCID mice was monitored every week by colonoscopic investigation after induction. Mice with moderately inflamed colons [endoscopic index of colitis severity (EICS) index 4-8] or marked inflamed colons (EICS 9-13) were randomly assigned to either a <<low dose>> PDT group or no treatment group (disease control group). Unmanipulated age-matched SCID mice served as negative controls.
(§1) PDT was performed with a photosensitizing agent (δ-ALA) dose of 15 mg/kg, administered 3 hours before the illumination with the energy dose of 10 J/cm^2 per gastrointestinal tract tissue.
The illumination time was 100 s, the wavelength 635 nm.
After completing the experiments with 15 mg/kg δ-ALA and 10 J/cm^2, the Applicants evaluated whether an energy illumination energy of 20 or 2 J/cm^2 would provide an equivalent or better effect on colitis. Furthermore, the Applicants sought to determine whether PDT treatment could be repeated at short term and whether this re-treatment would have a beneficial effect on colitis too. To this end, the Applicants performed another set of experiment with marked inflamed mice in which half of the PDT treated mice (15 mg/kg S-ALA and 10 J/cm^2) were subjected to a second identical low dose PDT treatment at the time of the re-apparition of colitis symptoms, namely one week after the first PDT treatment.
(§2) Mice were monitored by colonoscopy at day 3 and weeks 1, 2, 3 and 4 post PDT treatment. In addition to parameters investigated in example 1, CD4 immunostaining and apoptosis detection were performed.
All statistical analyses were performed using the Prism version 4.0c software from GraphPad Software (San Diego, Calif.). The unpaired two-tail Mann-Whitney test was usually applied, unless the numbers of mice in test groups were too small to perform this test (<5 mice in both test groups) and the unpaired two-tail t test was thus applied. Significance limit was set at a 2-tailed P value≦0.05.

[2] = Safety of colonoscopy and low/high dose PDT in wild type BALB/c mice
TNF-α = experiment: Expression index of TNF-α mRNA in illuminated colon, quantitative real-time PCR; assay type: in vivo, BALB/c mice
Source text: The third portion was used for measuring the expression of the molecules involved in immune and inflammatory phenomenons in the colonic mucosa (cytokines, chemokines). For RNA extraction this portion was conserved in RNA-later solution (Ambion Inc. Austin, USA) until processing. RNA was extracted from the tissues using a Rneasy Mini kit (Qiagen, Hombrechtikon, Switzerland). RNA samples were submitted to a second or third DNAse treatment in order to get rid of all traces of genomic DNA. Quality of the RNA samples was tested on agarose gels and absence of genomic DNA was tested by PCR using primers specific for a house keeping gene, glyceraldehydes-3-phosphate-dehydrogenase (GAPDH). RNA preparations were then submitted to reverse transcription using the ThermoScript™ RT-PCR system (Invitrogen, Basel, Switzerland) using an Oligo-dT as primer. Quantification of reverse transcripted messenger RNA for GAPDH, the inducible nitric oxide synthetase (iNOS), interferon-gamma (IFN-γ), interleukin-1 receptor antagonist (IL1-Ra), tumor necrosis factor alpha (TNF-α), interleukin 6 (IL-6), tumor growth factor beta (TGF-13) and interleukin10 (IL-10) was performed by quantitative real-time PCR in a BioRad Real-time PCR iCycler using specific pairs of primers and the green fluorescence dye SYBR—Green®. GAPDH was used to normalize quantifications within each individual sample (normalization of the number of mRNA copies for the gene of interest/1 million mRNA copies of the GAPDH gene of the investigated mouse). Expression of each gene of interest was finally calculated as an expression index (normalized number of mRNA copies of each manipulated mice/normalized number of mRNA copies of the unmanipulated mice) and the results are given as mean values of the expression index (unmanipulated mean mice index=1). Furthermore one kidney and a part of the liver were collected for pathological analysis to exclude hepato- or nephrotoxicity.

[3] = system: CD4+ cells in the colonic mucosa; experiment: Anti-CD4 immunostaining of treated colonic mucosa; assay type: in vivo, SCID mice; conditions: low dose PDT, 3 days after PDT, compared to DC mice
Procedure: as §1, §2
For anti-CD4 immunostaining, frozen sections were extensively dried, fixed with 100% acetone at 4° C. and rehydrated in PBS. Sections were then blocked for 20 minutes with a PBS solution containing 0.1% BSA (Sigma-Aldrich Inc., St-Louis, USA) and 0.5% NMS. CD4 detection was performed by incubation of the sections for 1 hour with a cell culture supernatant originating from an hybridoma secreting rat anti-mouse CD4 (clone H129.19). After washing with PBS, an Alexa Fluor 488-conjugated goat anti-rat IgG at a final concentration of 5 ng/ml in PBS 0.1% BSA, 1% NMS was used as secondary antibody and incubated for 45 minutes before two last PBS washings. All incubations were done at room temperature unless specified otherwise.

Structure (SMILES): NCC(=O)CCC(=O)O [δ-ALA, 5-aminolevulinic acid]
- EICS ([1]; marked inflamed mice (mean EICS 10.4±0.2 before), 15 mg/kg δ-ALA, 10 J/cm^2, 3 days after PDT, disease control 10.7±0.6, P<0.0001): 7.3±0.3
- EICS ([1]; marked inflamed mice, 15 mg/kg δ-ALA, 2 J/cm^2, 3 days after PDT, disease control 10.7±0.6, P=0.0271): 8.4±0.5
- EICS versus disease control group ([1]; marked inflamed mice, 15 mg/kg δ-ALA, 10 J/cm^2, up to 4 weeks after PDT): remained significantly lower than the one of the disease control group mice
- effect on colitis (EICS) versus disease control group ([1]; marked inflamed mice, 15 mg/kg δ-ALA, 20 J/cm^2, any time point): did not induce any significant beneficial effect
- EICS ([1]; marked inflamed mice, one single PDT treatment, time point 1 week after second PDT of comparison group): 9.8±0.5
- EICS ([1]; marked inflamed mice, one single PDT treatment, time point 2 weeks after second PDT of comparison group): 9.8±0.6
- EICS ([1]; marked inflamed mice, two PDT treatments (15 mg/kg, 10 J/cm^2) one week apart, 1 week after second PDT): 7.3±0.9
- EICS ([1]; marked inflamed mice, two PDT treatments one week apart, 2 weeks after second PDT): 7.33±0.3
- EICS versus disease control group ([1]; moderately inflamed mice, since week 2 post PDT): appeared no more significantly different from the one of the disease control group
- signs of skin phototoxicity ([2]; all experimental groups): no signs of skin phototoxicity were observed
- histology of colon (microscopic changes) ([2]; all groups other than high dose PDT): no microscopic changes were observed
- exterior aspect of mice (quality of life) ([2]; all groups other than high dose PDT (low dose PDT, δ-ALA only), 74 h observation): the exterior aspect of mice remained unchanged
- changes in the blood formula ([2]; any of the experimental conditions, 0 and 74 h): No significant changes in the blood formula were seen
- inflammatory cells by anti-MAC immunostaining ([2]; high dose PDT, compared to naïve mice): an increase of inflammatory cells was observed
- inflammatory cells by anti-MAC immunostaining ([2]; low dose PDT): did not lead to an increase in inflammatory cells
- macroscopic aspect of colon ([2]; low dose PDT, 74 hours): the colon appeared macroscopically normal
- expression index TNF-α (TNF-α; high dose PDT: 50 J/cm^2, 60 mg δ-ALA, 74 h, unmanipulated mice index=1): 5.19±0.93
- expression index TNF α (TNF-α; low dose PDT 15 mg/kg δ-ALA, 10 J/cm2): 1.16±0.21
- expression index TNF α (TNF-α; low dose PDT 5J/cm2, 15 mg/kg δ-ALA): 4.49±2.86
- number of CD4+ cells in the treated colonic mucosa [3]: obvious diminution in the number of CD4^+ cells

Reference: patent US20100087534A1, “Use of a Photosensitizing Agent in the Treatment or Prevention of an Inflammation-Associated Disorder in the Gastrointestinal Tract of a Mammal” (priority 2005, published 2010)
